Test results from patent publication EP1228097B1, “ANTIMICROBIAL ACTIVITY OF THE FIRST CATIONIC CLUSTER OF HUMAN LACTOFERRIN” (priority 1999, dated 2005).

Key:
bacteria = test: in vitro assay for antibacterial activity, bacteria not specified; type: cell-based; conditions: L. monocytogenes, antibiotic resistant S. aureus, K. pneumoniae, E. coli (FIGS. 2A-2D); 7 µM, 1 h at 37 °C
Experimental: (§1) Listeria monocytogenes strain EGD, Klebsiella pneumoniae (43816), and Escherichia coli O54 were purchased from the American Type Culture Collection (Rockville, MD). Antibiotic resistant S. aureus, K. pneumoniae and E. coli were cultured overnight in nutrient broth (Oxoid, Basingstoke, UK) at 37°C, diluted in tryptase soya broth (TSB, Oxoid) and cultured for an additional 2 h in a shaking waterbath at 37 °C. L. monocytogenes was cultured overnight in brain heart infusion broth (BHI, Oxoid) at 37°C, diluted and cultured for an additional 2 h in a shaking waterbath at 37°C.
In short, bacteria were washed with phosphate-buffered saline (PBS) (pH 7.4) and diluted to a concentration of approximately 2x10^6 CFU/ml of phosphate-buffered saline (pH 6.0) supplemented with 0.1 % (v/v) Tween-20 (hereafter designated as PBS-Tw). […] […] As negative controls, bovine serum albumin (BSA; Sigma) or no peptide were included.

[1] = system: antibiotic resistant S. aureus; test: in vitro assay for antibacterial activity (number of viable bacteria); type: cell-based, Staphylococcus aureus strain 2141; conditions: for killing of antibiotic resistant S. aureus (result in words): dose-effect studies, proteins in PBS-Tw, synthetic peptides in NaPB-TSB
Experimental: as §1
(§2) In short, bacteria were washed with phosphate-buffered saline (PBS) (pH 7.4) and diluted to a concentration of approximately 2x10^6 CFU/ml of phosphate-buffered saline (pH 6.0) supplemented with 0.1 % (v/v) Tween-20 (hereafter designated as PBS-Tw). […] At various time intervals (range 0-4 h) after incubation at 37 °C the number of viable bacteria was determined microbiologically. As negative controls, bovine serum albumin (BSA; Sigma) or no peptide were included.

K. pneumoniae = test: as above; type: cell-based, Klebsiella pneumoniae (43816); conditions: proteins in PBS-Tw, synthetic peptides in NaPB-TSB
Experimental: as §1, §2

E. coli = test: as above; type: cell-based, Escherichia coli O54; conditions: synthetic peptides in NaPB-TSB, 1 h at 37 °C
Experimental: as §1
[…] […] At various time intervals (range 0-4 h) after incubation at 37 °C the number of viable bacteria was determined microbiologically. As negative controls, bovine serum albumin (BSA; Sigma) or no peptide were included.

L. monocytogenes = test: as above; type: cell-based, Listeria monocytogenes strain EGD; conditions: for killing of L. monocytogenes (result in words): dose-effect studies, proteins in PBS-Tw, synthetic peptides in NaPB-TSB
Experimental: as §1, §2

[2] = pharmacology of 99mTc-labelled protein/peptides by scintigraphy (clearance, organ uptake, amount at the site of infection); type: in vivo, mice; conditions: for mean t1/2 (removal from the circulation): mouse, in vivo, iv; for Uptake by bladder / Uptake by kidneys / Uptake by liver: 1 nmole 99mTc-labelled, mice infected with antibiotic resistant S. aureus
Description: Labeling yields amounted to 88-95%.

[3] = system: antibiotic resistant S. aureus; test: experimental thigh muscle infection; type: in vivo, mice; conditions: for amount with which maximum effects on the number of viable bacteria were seen: mice infected with antibiotic resistant S. aureus, i.v. injection 24 h after infection, within 24 h after injection; for antibacterial activity in infected mice (result in words): mice with thigh muscle infection with antibiotic resistant S. aureus
Experimental: All animal studies were done in compliance with the LUMC Ethical Committee and Dutch laws related to the conduct of animal experiments. […] In short, specific pathogen-free, male, Swiss mice weighing 20-25 g (Broekman Institute, Someren, The Netherlands) were anaesthetized with a single intraperitoneal injection of 0.1 ml of saline containing 1 mg fluanisone and 0.03 mg fentanyl citrate (Hypnorm, Janssen Pharmaceutics, Tilburg, The Netherlands). Preceding scintigraphy, a subcutaneous injection of 0.1 ml, containing 0.2 mg diazepam (Valium, Hoffmann-La Roche, Mijdrecht. The Netherlands) was administered. Immediately thereafter, 1x10^7 CFU of antibiotic resistant S. aureus or K. pneumoniae in 0.1 ml of saline were injected into the right thigh muscle. […] As a control, mice were injected with 0.2 ml of saline containing BSA or saline without any peptide. […] Next, the infected thigh muscles were removed and, after weighing, homogenized in 4 ml of PBS. Appropriate dilutions of the homogenates were applied onto diagnostic sensitivity test plates (Oxoid), and the number of colonies counted after an overnight culture at 37 °C. Results are expressed as the number of CFUs per gram of infected tissue. All negative cultures were assigned the values of 100 CFU/ml of homogenate, which is the lower limit of detection.

Row | Substance | bactericidal activity against the various bacteria (bacteria) | killing of antibiotic resistant S. aureus (result in words) [1] | killing of K. pneumoniae (result in words) (K. pneumoniae) | killing of E. coli by synthetic peptides (result in words) (E. coli) | killing of L. monocytogenes (result in words) (L. monocytogenes) | mean t1/2 (removal from the circulation) [2] | antibacterial activity in infected mice (result in words) [3] | also measured
1 | hLF(3-11): synthetic fragment of hLF(1-11): residues 3-11 of hLF (RRSVQWCAV; UniProt P02788 22-30, looked up, fragment) | displayed bactericidal activity | significantly (p<0.05) more efficient than hLF(4-11) | killed | killed | significantly (p<0.05) more efficient than hLF(4-11) | – | – | –
2 | FQWQRNMRKVR [hLF(21-31), Mr 1,548; includes the second cationic domain, reference compound] | – | – | – | – | – | ~2 min | less effective than hLF(1-11) | amount with which maximum effects on the number of viable bacteria were seen [3]: 10 nmol
3 | hLF(4-11): synthetic fragment of hLF(1-11): residues 4-11 of hLF (RSVQWCAV; UniProt P02788 23-30, looked up, fragment) | displayed bactericidal activity | – | – | – | – | approximately 1 min | some antibacterial activity | –
4 | hLF(6-11): synthetic fragment of hLF(1-11): residues 6-11 of hLF (VQWCAV; UniProt P02788 25-30, looked up, fragment) | ineffective | – | – | – | – | – | – | –
5 | GRRRRSVQWCA [hLF(1-11), Mr 1,374] | displayed bactericidal activity | considerably (p<0.05) more efficient than hLF(3-11) | killed | killed | considerably (p<0.05) more efficient than hLF(3-11) | ~9 min | much more effective than hLF(4-11) | bactericidal efficiency relative to hLF(21-31) ([1]; antibiotic resistant S. aureus, FIGS. 3A-3C): at least ten times more (p<0.05) efficient than hLF(21-31); bactericidal efficiency relative to hLF(21-31) (L. monocytogenes; L. monocytogenes, FIGS. 3A-3C): at least ten times more (p<0.05) efficient than hLF(21-31); Uptake by bladder ([2]; interval 1 min): 10±1.5 % ID; Uptake by kidneys ([2]; interval 1 min): 18±3.8 % ID; Uptake by liver ([2]; interval 1 min): 20±1.6 % ID; Uptake by bladder ([2]; interval 15 min): 11±7.5 % ID; Uptake by kidneys ([2]; interval 15 min): 21±9.3 % ID; Uptake by liver ([2]; interval 15 min): 20±4.9 % ID; Uptake by bladder ([2]; interval 30 min): 21±5.7 % ID; Uptake by kidneys ([2]; interval 30 min): 17±5.7 % ID; Uptake by liver ([2]; interval 30 min): 20±1.6 % ID; Uptake by bladder ([2]; interval 60 min): 22±5.6 % ID; Uptake by kidneys ([2]; interval 60 min): 14±0.4 % ID; Uptake by liver ([2]; interval 60 min): 27±0.6 % ID; amount of radiolabeled peptide at the site of infection ([2]; within the first min after injection of 1 nmole, antibiotic resistant S. aureus-infected mice): 1-1.5 % of injected dose (ID); amount with which maximum effects on the number of viable bacteria were seen [3]: 0.1 nmol
6 | hLF(5-11): synthetic fragment of hLF(1-11): residues 5-11 of hLF (SVQWCAV; UniProt P02788 24-30, looked up, fragment) | ineffective | – | – | – | – | – | – | –
7 | hLF(2-11): residues 2 to 11 inclusively from the N-terminal region of hLF (RRRSVQWCAV; UniProt P02788 21-30, looked up, fragment) | displayed bactericidal activity | considerably (p<0.05) more efficient than hLF(3-11) | killed | killed | considerably (p<0.05) more efficient than hLF(3-11) | – | – | –
